For assay [1], the system named is H1299 human non-small cell lung cancer-cells. Nature of the assay: Cancer cell viability by cellular ATP levels (ViaLight), H1299. The assay is classed as cell-based. The following applies: NCI-H1299, 72 h, 3 days of incubation, ATP levels relative to untreated control. Here is the method: (§1) Selected cell lines included C33A cervical carcinoma cells and H1299 human non-small cell lung cancer-cells (American Type Culture Collection, Manassas, Va. USA), which were cultured in the media recommended by the American Type Culture Collection. The cells lines were plated in 96-well microtiter plates (PerkinElmer Life Sciences Inc, Boston, Mass., USA) at a confluency that allowed them to reach confluence after 4 days of growth. One day after plating, the cells were treated with various concentrations of Compounds. Stock solutions of the Compounds were prepared in dimethyl sulfoxide (Sigma-Aldrich Inc., St. Louis, Mo., USA), diluted in the recommended media and then added to the cells. The total dimethyl sulfoxide on the cells was 0.1%. After 3 days of incubation the ATP levels in the cells were quantified using a luminescent ViaLight detection system (Bio-Whittaker, MD, USA). The results were plotted relative to untreated control cells, which were set at a value of 100. The IC50s were determined using a best-fit sigmoidal dose response curve with variable slope.

Assay [2] deals with C33A cervical carcinoma cells. Nature of the assay: Cancer cell viability by cellular ATP levels (ViaLight), C33A. The format is cell-based. Particulars: Homo sapiens, C-33-A, 72 h, 3 days of incubation, ATP levels relative to untreated control. Here is the method:
as §1

These results are taken from US8420693B2, “Dipyrrole compounds, compositions, and methods for treating cancer or viral diseases” (Gemin X Pharmaceuticals Canada Inc., priority 2004, dated 2013).

With `COC1=CC(c2ccc3c(c2)OCC3)=NC1=Cc1[nH]c(C)cc1C` [Compound 31, 2-((5-(2,3-dihydrobenzofuran-6-yl)-3-methoxy-2H-pyrrol-2-ylidene)methyl)-3,5-dimethyl-1H-pyrrole], the results for the concentration for half-maximal inhibition (IC50) in assay [1] and in assay [2] were 0.668 µM and 0.212 µM, respectively.
On to `COC1=CC(c2ccc(Br)cc2)=NC1=Cc1[nH]c(C)cc1C` [Compound 29, 2-((5-(4-bromophenyl)-3-methoxy-2H-pyrrol-2-ylidene)methyl)-3,5-dimethyl-1H-pyrrole], for which the results for the IC50 in assay [1] and in assay [2] were 6.64 µM and 1.15 µM, respectively.
Take `COC1=CC(c2ccc(Cl)cc2)=NC1=Cc1[nH]c(C)cc1C` [Compound 2, 5-(4-chlorophenyl)-3-methoxy-2-((3,5-dimethyl-1H-pyrrol-2-yl)methylene)-2H-pyrrole]: the IC50 (commonly the concentration needed to halve the response being measured) amounted to 10 µM in assay [1] and 2.5 µM in assay [2].
`COC1=CC(c2ccoc2)=NC1=Cc1[nH]c(C)cc1C` [Compound 14, 2-((5-(furan-3-yl)-3-methoxy-2H-pyrrol-2-ylidene)methyl)-3,5-dimethyl-1H-pyrrole]: the results for the concentration for half-maximal inhibition (IC50) in assay [1] and in assay [2] were 6.5 µM and 0.7 µM, respectively.
For `COC1=CC(c2ccc(OC)c(OC)c2OC)=NC1=Cc1[nH]c(C)cc1C` [Compound 18, 2-((3-methoxy-5-(2,3,4-trimethoxyphenyl)-2H-pyrrol-2-ylidene)methyl)-3,5-dimethyl-1H-pyrrole], the IC50 turned out to be 4 µM in assay [1] and 2 µM in assay [2].
On to `COC1=CC(c2ccccc2)=NC1=Cc1[nH]c(C)cc1C` [Compound 1, 3-methoxy-2-((3,5-dimethyl-1H-pyrrol-2-yl)methylene)-5-phenyl-2H-pyrrole], for which the concentration for half-maximal inhibition (IC50) in assay [1] and in assay [2] was 10 µM throughout.
As to `COC1=CC(c2cc(OC)ccc2OC)=NC1=Cc1[nH]c(C)cc1C` [Compound 19, 2-((3-methoxy-5-(2,5-dimethoxyphenyl)-2H-pyrrol-2-ylidene)methyl)-3,5-dimethyl-1H-pyrrole], the half-inhibitory concentration (IC50) in assay [1] and in assay [2] was 20 µM throughout.
For the compound `COC1=CC(c2ccc3cc(OC)ccc3c2)=NC1=Cc1[nH]c(C)cc1C` [Compound 27, 2-((3-methoxy-5-(2-methoxynaphthalen-6-yl)-2H-pyrrol-2-ylidene)methyl)-3,5-dimethyl-1H-pyrrole], the IC50 amounted to 6.26 µM in assay [1] and 7 µM in assay [2].
On the same counts, the results for `COC1=CC(c2cnc(OC)nc2OC)=NC1=Cc1[nH]c(C)cc1C` [Compound 32, 2,4-dimethoxy-5-(4-methoxy-5-((3,5-dimethyl-1H-pyrrol-2-yl)methylene)-5H-pyrrol-2-yl)pyrimidine] are 6.87 µM and 6.33 µM.
Taken in the same sequence, the figures for `COC1=CC(c2ccc(Br)s2)=NC1=Cc1[nH]c(C)cc1C` [Compound 7, 2-((5-(5-bromothiophen-2-yl)-3-methoxy-2H-pyrrol-2-ylidene)methyl)-3,5-dimethyl-1H-pyrrole] were 15 µM and 9.5 µM.
For `COC1=CC(c2ccc(OC)cc2OC)=NC1=Cc1[nH]c(C)cc1C` [Compound 16, 2-((3-methoxy-5-(2,4-dimethoxyphenyl)-2H-pyrrol-2-ylidene)methyl)-3,5-dimethyl-1H-pyrrole], the IC50 in assay [1] stood at 4.5 µM; in assay [2] it was 3 µM.
Take `COC1=CC(c2cccnc2F)=NC1=Cc1[nH]c(C)cc1C` [Compound 40, 2-fluoro-3-(4-methoxy-5-((3,5-dimethyl-1H-pyrrol-2-yl)methylene)-5H-pyrrol-2-yl)pyridine]: the figures for the half-maximal inhibitory concentration (IC50) in assay [1] and in assay [2] were 20 µM and 8.55 µM, respectively.
Consider `COC1=CC(c2ccc3c(c2)OCO3)=NC1=Cc1[nH]c(C)cc1C` [Compound 20, 2-((5-(benzo[d][1,3]dioxol-5-yl)-3-methoxy-2H-pyrrol-2-ylidene)methyl)-3,5-dimethyl-1H-pyrrole], for which the results for the 50% inhibitory concentration (IC50) in assay [1] and in assay [2] were 0.55 µM and 0.21 µM, respectively.
For `COC1=CC(c2ccc(SC(C)C)cc2)=NC1=Cc1[nH]c(C)cc1C` [Compound 36, 2-((5-(4-(isopropylthio)phenyl)-3-methoxy-2H-pyrrol-2-ylidene)methyl)-3,5-dimethyl-1H-pyrrole], the concentration for half-maximal inhibition (IC50) in assay [1] came to 1.43 µM; in assay [2], 1.19 µM.
Taken in the same sequence, the figures for `COC1=CC(c2cccnc2Cl)=NC1=Cc1[nH]c(C)cc1C` [Compound 33, 2-chloro-3-(4-methoxy-5-((3,5-dimethyl-1H-pyrrol-2-yl)methylene)-5H-pyrrol-2-yl)pyridine] were 15.9 µM and 8.73 µM.
On the same counts, the results for `COC1=CC(c2cnn(Cc3ccccc3)c2)=NC1=Cc1[nH]c(C)cc1C` [Compound 37, 1-benzyl-4-(4-methoxy-5-((3,5-dimethyl-1H-pyrrol-2-yl)methylene)-5H-pyrrol-2-yl)-1H-pyrazole] are 1.65 µM and 0.181 µM.
On the same counts, the results for `COC1=CC(c2ccc(OCCN3CCCC3)cc2)=NC1=Cc1[nH]c(C)cc1C` [Compound 21, 2-((5-(4-(2-(pyrrolidin-1-yl)ethoxy)phenyl)-3-methoxy-2H-pyrrol-2-ylidene)methyl)-3,5-dimethyl-1H-pyrrole] are 1.34 µM and 0.69 µM.
With `COC1=CC(c2ccc3c(c2)OCCO3)=NC1=Cc1[nH]c(C)cc1C` [Compound 23, 2-((5-(2,3-dihydrobenzo[b][1,4]dioxin-7-yl)-3-methoxy-2H-pyrrol-2-ylidene)methyl)-3,5-dimethyl-1H-pyrrole], the IC50 was 7.55 µM in assay [1] and 1.6 µM in assay [2].
For `COC1=CC(c2ccc(OC)c(C)c2)=NC1=Cc1[nH]c(C)cc1C` [Compound 24, 2-((3-methoxy-5-(4-methoxy-3-methylphenyl)-2H-pyrrol-2-ylidene)methyl)-3,5-dimethyl-1H-pyrrole], the IC50 in assay [1] was 1.06 µM; in assay [2], 0.503 µM.
Taken in the same sequence, the figures for `COC1=CC(c2ccc3c(c2)OCCN3C)=NC1=Cc1[nH]c(C)cc1C` [Compound 34, 3,4-dihydro-7-(4-methoxy-5-((3,5-dimethyl-1H-pyrrol-2-yl)methylene)-5H-pyrrol-2-yl)-4-methyl-2H-benzo[b][1,4]oxazine] were 1.24 µM and 1.23 µM.
In the case of `COC1=CC(c2ccc(OC)c(OC)c2)=NC1=Cc1[nH]c(C)cc1C` [Compound 17, 2-((3-methoxy-5-(3,4-dimethoxyphenyl)-2H-pyrrol-2-ylidene)methyl)-3,5-dimethyl-1H-pyrrole], the IC50 in assay [1] was determined as 0.58 µM; in assay [2], 0.21 µM.
Taken in the same sequence, the figures for `COC1=CC(c2cc3ccccc3s2)=NC1=Cc1[nH]c(C)cc1C` [Compound 10, 2-((5-(benzo[b]thiophen-2-yl)-3-methoxy-2H-pyrrol-2-ylidene)methyl)-3,5-dimethyl-1H-pyrrole] were 4.6 µM and 3 µM.
For the compound `COC1=CC(c2ccc(OC)cc2C=O)=NC1=Cc1[nH]c(C)cc1C` [Compound 11, 5-methoxy-2-(4-methoxy-5-((3,5-dimethyl-1H-pyrrol-2-yl)methylene)-5H-pyrrol-2-yl)benzaldehyde], the IC50 in assay [1] turned out to be 12.5 µM; in assay [2], 7 µM.
Taken in the same sequence, the figures for `COC1=CC(c2cccs2)=NC1=Cc1[nH]c(C)cc1C` [Compound 6, 2-((3-methoxy-5-(thiophen-2-yl)-2H-pyrrol-2-ylidene)methyl)-3,5-dimethyl-1H-pyrrole] were 8.5 µM and 6.5 µM.
Taken in the same sequence, the figures for `COC1=CC(c2ccc(N(C)C)cc2)=NC1=Cc1[nH]c(C)cc1C` [Compound 22, 4-(4-methoxy-5-((3,5-dimethyl-1H-pyrrol-2-yl)methylene)-5H-pyrrol-2-yl)-N,N-dimethylbenzenamine] were 0.42 µM and 0.29 µM.
As for `COC1=CC(c2ccc(OC)c(O)c2)=NC1=Cc1[nH]c(C)cc1C` [Compound 38, 2-methoxy-5-(4-methoxy-5-((3,5-dimethyl-1H-pyrrol-2-yl)methylene)-5H-pyrrol-2-yl)phenol], the half-maximal inhibitory concentration (IC50) in assay [1] was 6.69 µM; in assay [2] it was 2 µM.
On the same counts, the results for `COC1=CC(c2ccc(F)cc2)=NC1=Cc1[nH]c(C)cc1C` [Compound 5, 5-(4-fluorophenyl)-3-methoxy-2-((3,5-dimethyl-1H-pyrrol-2-yl)methylene)-2H-pyrrole] are 10 µM and 2.2 µM.
On the same counts, the results for `COC1=CC(c2ccsc2)=NC1=Cc1[nH]c(C)cc1C` [Compound 15, 2-((3-methoxy-5-(thiophen-3-yl)-2H-pyrrol-2-ylidene)methyl)-3,5-dimethyl-1H-pyrrole] are 6.6 µM and 0.75 µM.
For the compound `COC1=CC(c2cncnc2)=NC1=Cc1[nH]c(C)cc1C` [Compound 35, 5-(4-methoxy-5-((3,5-dimethyl-1H-pyrrol-2-yl)methylene)-5H-pyrrol-2-yl)pyrimidine], the IC50 was 15.9 µM in assay [1] and 8.96 µM in assay [2].
On to `COC1=CC(c2ccc(F)cc2F)=NC1=Cc1[nH]c(C)cc1C` [Compound 3, 2-((5-(2,4-difluorophenyl)-3-methoxy-2H-pyrrol-2-ylidene)methyl)-3,5-dimethyl-1H-pyrrole], for which the IC50 is 10 µM in assay [1] and 3 µM in assay [2].
For the compound `COC1=CC(c2ccc(F)nc2)=NC1=Cc1[nH]c(C)cc1C` [Compound 39, 2-fluoro-5-(4-methoxy-5-((3,5-dimethyl-1H-pyrrol-2-yl)methylene)-5H-pyrrol-2-yl)pyridine], the IC50 in assay [1] is 20 µM; in assay [2], 7.65 µM.
